According to patent US9951089B2, “Methods of treating a fatty acid amide hydrolase-mediated condition” (INFINITY PHARMACEUTICALS, INC., priority 2010, dated 2018):

Biological target: T1, rat FAAH (Rattus norvegicus, UniProt P97612)
T1 construct: encoding for amino acids 32-579 and an N-terminal His-tag; His-tag (N); made in house; host or cells: E. coli BL21 (DE3)
T1 sequence (P97612 32-579): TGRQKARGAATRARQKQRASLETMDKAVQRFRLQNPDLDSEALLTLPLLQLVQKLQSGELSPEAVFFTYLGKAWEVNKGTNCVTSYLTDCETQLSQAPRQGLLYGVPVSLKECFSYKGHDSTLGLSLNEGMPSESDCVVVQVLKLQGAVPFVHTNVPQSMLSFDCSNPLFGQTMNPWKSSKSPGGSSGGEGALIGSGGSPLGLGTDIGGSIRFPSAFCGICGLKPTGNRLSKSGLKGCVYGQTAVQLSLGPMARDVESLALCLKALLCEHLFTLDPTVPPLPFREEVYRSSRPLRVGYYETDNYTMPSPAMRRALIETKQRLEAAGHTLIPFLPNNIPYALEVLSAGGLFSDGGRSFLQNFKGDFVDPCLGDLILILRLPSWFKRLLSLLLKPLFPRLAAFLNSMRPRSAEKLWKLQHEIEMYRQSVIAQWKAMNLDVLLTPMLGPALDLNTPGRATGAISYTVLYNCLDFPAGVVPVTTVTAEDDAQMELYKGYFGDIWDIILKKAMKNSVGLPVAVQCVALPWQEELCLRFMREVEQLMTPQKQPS
Test: Ki determination, rat FAAH (AMC-arachidonoyl amide hydrolysis, fluorescence end point)
Assay type: biochemical
Conditions: rFAAH 6 nM, substrate 20 μM, 30 min preincubation, 4 hours at room temperature
Description: An N-terminal transmembrane domain deleted rat FAAH (rFAAH) was cloned as described in Patricelli et al., Biochemistry (1998) 37:15177-15187, encoding for amino acids 32-579 and an N-terminal His-tag, herein referred to as rFAAH. E. coli BL21 (DE3) were transformed according to manufacturer protocols (Invitrogen) and rFAAH was expressed and purified from a modified procedure described in Patricelli et al., 1998.
Briefly, 8 L of cells were cultured to an OD600nm of 0.6 at 37° C., and FAAH expression induced by 1 mM IPTG, followed by 4 hours of growth. Cells were pelleted by centrifugation at 5000×g to generate the cell paste. […]
Soluble rFAAH was purified from the supernatant using nickel (Ni), heparin and size exclusion chromatography (SEC) columns. […] Eluted samples were pooled, concentrated to ˜5 mg/mL and final rFAAH concentrations determined by measuring the absorbance at 280 nm, using an extinction coefficient of ϵ=60850 M^−1 cm^−1. […]
The Ki of a test compound was determined for rat and human FAAH by measuring the dose dependent inhibition of AMC-Arachidonoyl amide hydrolysis as an end point read. Assays were carried out in Corning COSTAR® 384 well flat black bottom microtiter plates (Catalog #3654) and monitored in an Envision 2100 multilabel plate reader (Perkin Elmer-Wallac), with a 355 nm (40 nm band pass) excitation filter and 460 nm (25 nm bandpass) emission filter. […]

OB(O)c1ccc(-c2ccc(B(O)O)c(F)c2)cc1F [IMP-4]
Ki: 5.1 nM
